Assay results taken from paper PMC7357032, “Antiparasitic Constituents of Beilschmiedia louisii and Beilschmiedia obscura and Some Semisynthetic Derivatives (Lauraceae)” (Molecules, 2020).
Like-named read-outs stand apart in the source and are kept apart here.

Experiments:
[1] = system: Plasmodium falciparum strain Pf3D7; assay: In vitro antiplasmodial assay (pLDH assay); settings: read-out: IC50 Pf3D7
[2] = Cytotoxicity assay (resazurin); format: cell-based; settings: human, compounds and combinations, HeLa cells, read-out: % Cell Viability ± sd Cytotoxicity
Protocol: Human cervix adenocarcinoma cells (HeLa cells) were used to check the toxicity of the crude extract and compounds and their combinations as described by Keusch et al. (1972). Stocks solutions were prepared in DMSO at a concentration of 50 μg/mL for the extracts and 20 μM for compounds, and combinations. To assess the overt cytotoxicity, samples were placed in 96-well plates containing cells for 48 h. The numbers of cells surviving drug treatment were determined using the resazurin based reagent and reading resorufin fluorescence in a Spectramax M3 microplate reader. Results were expressed as % viability-the resorufin fluorescence in compound-treated wells relative to untreated controls. Compounds were tested in duplicate and standard deviations (SD) derived. […] (which induces cell apoptosis) was used as the positive control.

[3] = system: Trypanosoma brucei brucei; assay: In vitro antitrypanosomal assay (resazurin viability); settings: for antitrypanosomal activity against Tb brucei (in words): in vitro; for IC50: Trypanosoma brucei
[4] = read-out: IC50 Tb brucei, compounds, values given in µg/mL in the text

SMILES: CCN(CC)CCCC(C)Nc1ccnc2cc(Cl)ccc12 (stereo not drawn) [Chloroquine]
- IC50 [1]: 0.034 µM

SMILES: CCCC/C=C\CCCCc1ccccc1 [Compound 3, (5Z) 1-phenyldec-5-ene]
- viability at 48 h, 20 µM (stock) [2]: 50.3 ± 8.9%

SMILES: O=C(O)CCCCCCCCCCCCCCc1ccccc1 [Compound 5, 15-phenylpentadecanoic acid]
- viability at 48 h, 20 µM (stock) [2]: 76.6 ± 4.1%

SMILES: CCCCCCCCC1C2C=CC3C(C(=O)O)C=CC4CC1C2C43 (stereo not drawn) [Compound 11, beilschmiedic acid E]
- viability at 48 h, 20 µM (stock) [2]: 100 ± 5.8%
- antitrypanosomal activity against Tb brucei (in words) [3]: inactive

SMILES: CCCCCCCCC1C2C=CC3C(CO)C=CC4CC1C2C43 (stereo not drawn) [Compound 11a, beilschmiedol A]
- viability at 48 h, 20 µM (stock) [2]: 52.6 ± 1.8%
- antitrypanosomal activity against Tb brucei (in words) [3]: moderate activity

SMILES: CCCCCCCC[C@@H]1[C@H]2C=C[C@H]3C(C=O)=CC[C@@H]4C[C@@H]1[C@@H]2[C@H]43 [Compound 11b, beilschmiedal]
- viability at 48 h, 20 µM (stock) [2]: 79.6 ± 17.1%
- IC50 [3, 4]: 8.3 µg/mL
- IC50 [1]: 31.4 µM

SMILES: CCCCCCCC[C@@H]1[C@H]2C=C[C@H]3C(/C=N/NC(N)=S)=CC[C@@H]4C[C@@H]1[C@@H]2[C@H]43 [Compound 11c, beilschmiecarbazone]
- viability at 48 h, 20 µM (stock) [2]: 100 ± 2.8%

SMILES: CCCCCCCCC1C2C=CC3C(COC(=O)c4cc(OC)c(OC)c(OC)c4)C=CC4CC1C2C43 (stereo not drawn) [Compound 11d, beilschmiegallate]
- viability at 48 h, 20 µM (stock) [2]: 100 ± 3.4%

SMILES: O=C(O)C[C@@H]1[C@H]2C=C[C@H]3C(c4ccc5c(c4)OCO5)=CC[C@@H]4C[C@@H]1[C@@H]2[C@H]43 [Compound 12, methylenedioxyendiandric acid A]
- viability at 48 h, 20 µM (stock) [2]: 100 ± 10.8%

SMILES: CC[C@H](CC[C@@H](C)[C@H]1CC[C@H]2[C@@H]3CC=C4C[C@@H](O)CC[C@]4(C)[C@H]3CC[C@]12C)C(C)C [Compound 13, β-sitosterol]
- IC50 ([3]; 48 h, read-out: IC50 Tb Brucei, isolated compounds, mixtures and drug standard, dose-response, for 6 + 7 IC50 maximum calculated with the constituent of lowest molecular mass): 9.5 µM

SMILES: N=C(N)c1ccc(OCCCCCOc2ccc(C(=N)N)cc2)cc1 [Pentamidine, reference compound]
- IC50 [3, 4]: ~0.01 µg/mL
